In brackets after ≈: the same amount, converted by molar mass.
What was measured:
Type in all cases: cell-based, E. coli
[1] = test system: CFT073 Δlgt; experiment: MIC assay, CFT073 Δlgt, Lgt 0.25% Ara; details: Escherichia coli
Experimental: (§1) Unless stated otherwise, E. coli cells were grown in Luria-Bertani (LB) medium (0.5% yeast extract, 1% tryptone, 0.5% NaCl) at 37°C. Where indicated, kanamycin (Kan) was added to culture media at a 50-μg/ml final concentration. MIC assays were performed based on Clinical and Laboratory Standards Institute (CLSI) guidelines. For in vitro growth curves, overnight cultures of WT CFT073, CFT073 Δlgt, and CFT073 Δlgt complemented with lgt from E. coli (lgt^Ec) or P. aeruginosa (lgt^Pa) were grown to mid-exponential phase (optical density at 600 nm [OD600] of 0.6) and then diluted to an OD600 of 0.1 to initiate growth curves. At various times, culture aliquots were diluted and plated in dilutions on LB+Kan agar, and CFU were enumerated in duplicates. Growth of MG1655 inducible deletion strains was measured by culturing in the presence of 2-fold dilutions of arabinose (starting arabinose concentrations for CFT073 and MG1655 inducible deletion strains were 4% and 0.8%, respectively). While […] was sufficient for WT growth of MG1655 Δlgt, 4% arabinose was used for CFT073 Δlgt based on comparing its growth to that of WT CFT073 as measured by CFU. OD600 growth measurements were performed using an EnVision 2101 multilabel reader plate reader (PerkinElmer) linked with Echo liquid handler (Labcyte). For time-kill experiments, bacteria were harvested in mid-exponential phase and treated with 12.5 μM G2824, 3.2 μM globomycin, and 1.6 μM vancomycin. CFU were enumerated at various times posttreatment. Bacterial culture medium containing 2% arabinose was used to induce lpp or lppΔK expression from pBad24 plasmids. Bacterial viability at different time points during the treatment was measured by enumerating CFU. Serum killing assays were carried out as previously described ([17]).

[2] = test system: CFT073 Δlgt; experiment: MIC assay, CFT073 Δlgt, Lgt 4% Ara; details: Escherichia coli
Experimental: as §1

[3] = test system: MG1655 imp4213; experiment: Sucrose gradient centrifugation, IM and OM separation; details: 1× MIC, 60 min
Experimental: Bacterial inner and outer membranes were separated by isopycnic sucrose gradient centrifugation as described previously ([75]) and by the Hancock Laboratory (http://cmdr.ubc.ca/bobh/method/outer-membrane-preparation-one-step-sucrose-gradient-procedure/), with some modifications. Briefly, bacteria were grown in Luria broth at 37°C to mid-exponential phase (OD600 of 0.8 to 0.9) and then treated with 1× MIC of designated inhibitors for 1 h. Cells representing equivalents of an OD600 of 10 were harvested by centrifugation at 4,000 × g for 15 min, washed once, and resuspended in cold 10 mM Tris, pH 8.0, containing 20% (wt/vol) sucrose, cOmplete EDTA-free protease inhibitor cocktail (Roche), and 1,000 U/ml nuclease (Benzonase nuclease; EMD Millipore). The cell suspension was disrupted by two passages through an LV1 Microfluidizer (Microfluidics). Unbroken cells were removed by centrifugation at 4,000 × g, and membranes were collected by ultracentrifugation at 100,000 × g for 1 h and washed once with cold 10 mM Tris, pH 8.0. The final membrane preparation was resuspended in 10 mM Tris, pH 8.0, containing 10% sucrose, cOmplete EDTA-free protease inhibitor cocktail (Roche), and 1,000 U/ml nuclease and then applied to the top of the sucrose gradients (73%, 60%, and 20%). The loaded gradients were spun at 39,000 rpm for 22 h at 4°C in a Beckman SW 41 Ti rotor. Fractions were collected from the top and analyzed by SDS-PAGE and immunoblotting with appropriate antibodies.

[4] = test system: CFT073 imp4213; experiment: SDS fractionation (PAP and non-PAP) of Lpp and Pal; details: 0.5× MIC, 60 min, PAP fraction
Experimental: Purification of PGN-associated proteins (PAP) was performed according to published methods ([17], [40], [41]) with some modifications. Briefly, bacteria were harvested in mid-exponential phase for treatment and then subjected to PAP extraction by resuspending the cell pellets from an OD (A600) of 10 in 6 ml of PAP extraction buffer containing 2% (wt/vol) SDS in 100 mM Tris-HCl (pH 8.0) with 100 mM NaCl, 10% glycerol, and cOmplete, mini, EDTA-free protease inhibitor cocktail (Sigma-Aldrich). After 60 min at RT, the extraction was subjected to centrifugation at 100,000 × g for 60 min at 22°C, and the pellet, containing PGN and associated proteins, was washed once with the same PAP extraction buffer with centrifugation at 100,000 × g for 30 min and resuspended in 200 μl of PAP extraction buffer (referred to as the SDS-insoluble on PAP fraction). The supernatant containing the SDS-soluble fraction was aliquoted and frozen (referred to as non-PAP fraction). Both fractions were treated with equal volumes of BugBuster buffer prior to the addition of sample buffer for Western immunoblotting as described above. It should be noted that the final PAP fractions were ∼30-fold more concentrated than the non-PAP fractions.

[5] = test system: BW25113 cells, lgt gRNA; experiment: CRISPRi knockdown sensitization, lgt gRNA; details: 2 μM G2824, 0.05 μM globomycin or 0.016 μM ciprofloxacin; OD600 relative to untreated, versus scr or folA gRNA
From the text: The two-plasmid bacterial CRISPRi system pdCas9-bacteria_GNE and PGNRNA-bacteria_GNE are based on the AddGene plasmids 44249 and 44251 ([73]), respectively. The plasmid was synthesized in smaller DNA fragments (500 bp to 3 kb) (IDT gBlocks) and assembled by Gibson assembly (NEB) according to the manufacturer’s protocols. Plasmids were confirmed by sequencing (ELIM Bio). gRNAs were designed to target the 5′ end of the gene on the nontemplate strand using Benchling CRISPR software ([74]). gRNAs were cloned into PGNRNA-bacteria using Gibson assembly (NEB) according to the manufacturer’s protocols and sequence confirmed (ELIM Bio).
Bacterial cultures were grown overnight on LB agar supplemented with carbenicillin (50 μg/ml) and chloramphenicol (12.5 μg/ml) to maintain both plasmids, pdCas9-bacteria and PGNRNA-bacteria with each gRNA as appropriate. Cells were scraped from the plate into fresh medium. The OD600 was measured, and the culture was subsequently diluted to an OD600 0.001 in the presence or absence of G2824, globomycin, or ciprofloxacin. Two hundred microliters was transferred to a 96-well plate (Corning) and monitored for growth by measuring the OD600 (EnVision multimode plate reader; PerkinElmer). All treatments were performed in triplicates. The specificity of CRISPRi downregulation was measured using reverse transcriptase quantitative PCR (RT-qPCR).

Compound	MIC [1] [µM]	MIC [2] [µM]	IM accumulation of OM lipoproteins and OMPs [3]	IM accumulation of PGN-linked Lpp [3]	localization of OmpA [3]	IM total protein and OM density ([3]; versus untreated)	levels of PGN-linked Lpp and Pal [4]	sensitization by decreased lgt expression [5]
CN[C@H](CC(C)C)C(=O)N[C@H]1C(=O)N[C@@H](CC(N)=O)C(=O)N[C@H]2C(=O)N[C@H]3C(=O)N[C@H](C(=O)N[C@H](C(=O)O)c4cc(O)cc(O)c4-c4cc3ccc4O)[C@H](O)c3ccc(c(Cl)c3)Oc3cc2cc(c3O[C@@H]2O[C@H](CO)[C@@H](O)[C@H](O)[C@H]2O[C@H]2C[C@](C)(N)[C@H](O)[C@H](C)O2)Oc2ccc(cc2Cl)[C@H]1O [Vancomycin]	12.5 (≈ 18.1 µg/mL)	> 100	–	–	–	–	–	–
CCCCCC[C@H]1OC(=O)CNC(=O)[C@H]([C@H](C)O)NC(=O)[C@H](CO)NC(=O)[C@H]([C@H](C)CC)NC(=O)[C@H](CC(C)C)N(C)C(=O)[C@@H]1C [Globomycin]	–	–	IM accumulation of OM lipoproteins (Pal and BamB) and OMPs (BamA and OmpA)	significant IM accumulation of PGN-linked Lpp, including DGPLP	mislocalization of the β-barrel protein, OmpA	increases in total protein levels in the IM fraction and a decrease in OM density	accumulation of PGN-linked DGPLP (§) and other PGN-linked Lpp forms (†)	not globomycin

Reference: PMC8316002, “Inhibition of Escherichia coli Lipoprotein Diacylglyceryl Transferase Is Insensitive to Resistance Caused by Deletion of Braun’s Lipoprotein” (Journal of Bacteriology, 2021)
